# Where a name gives a salt, the structure may show the parent alone.
# Columns and labels:
# [1] = tested on: vascular permeability (histamine-induced); test: Evans Blue assay of vascular permeability, histamine with ACCS or CPM (Example 6); assay type: in vivo, rats (Sprague-Dawley); conditions: 198 μg total protein ACCS or 50 μg CPM
# Protocol: Method: […] The Evan's Blue dye binds to albumin and other plasma proteins present in the blood and circulates throughout the animal's entire vascular system. Increased vascular permeability results in extravasation from blood vessels and capillaries of the Evans Blue dye bound to plasma protein. […] After approximately 20 min, the animals were sacrificed, and an area of skin that included the entire injection site was removed with punch biopsy.
# [2] = tested on: irritant (TPA) skin inflammation; test: Intralesional injection in irritant TPA skin (ear) inflammation in mice; assay type: in vivo
# Protocol: Method: Intralesional injection into the ear was given once daily to the following groups: 1. TPA+intralesional control; 2. TPA+intralesional ACCS; 3. TPA+intralesional kenalog (10 mg/ml) (a potent intralesional corticosteroid); 4. ACCS intralesional injection alone; 5. Saline sham injections to the normal untreated ear. The endpoints for the study were ear thickness and ear weight at the end of the experiment. The thicker the ear and the increased weight gain correlates with the degree of inflammation.
# [3] = tested on: vascular permeability (histamine-induced); test: Miles assay, Evans Blue dye extravasation after intradermal injection (Example 5); assay type: in vivo, rat; conditions: 1 μg histamine alone intradermally (inducer of vascular permeability)
# Protocol: Method: One hundred μL of 5% Evans Blue Dye was administered intravenously to an approximately 260 gram male rat via a jugular vein catheter. The Evans Blue dye binds to albumin and other proteins present in the blood and circulates throughout the animal's entire vascular system. One hundred μL of various test articles were then injected intradermally on the flank of the animal forming a small vesicular bleb of the injected article under on the skin surface. Changes in local vascular permeability were observed by the development of a blue spot corresponding to the Evans Blue bound protein extravasate at the injection site. Results were recorded qualitatively through photograph. The changes in Evans Blue Dye extravasation was quantitatively measured by the excision of the blue skin sample after animal sacrifice and placing the excised skin sample in 1 mL of formamide in order to extract the dye. The dye was extracted over 48 hours at 60° C. The extracted dye was then read on a plate reader for absorbance measurement at 630 nm.
# The local extravasation of protein-bound Evans Blue Dye at the site of injection is correlated with the increase in vascular permeability. […] Saline and ACCS were also injected alone to serve as negative controls.
compound,measurement,setting,value
"CN(C)CCC(c1ccc(Cl)cc1)c1ccccn1 (centres unmarked) [CPM, chlorpheniramine maleate]",ABS 630 nm/μg tissue,[1]; histamine dose 0.05 μg intradermal,0.07 ABS 630 nm/μg tissue
same,ABS 630 nm/μg tissue,[1]; histamine dose 0.5 μg intradermal,0.10 ABS 630 nm/μg tissue
same,ABS 630 nm/μg tissue,[1]; histamine dose 1 μg intradermal,0.10 ABS 630 nm/μg tissue
same,ABS 630 nm/μg tissue,[1]; histamine dose 3 μg intradermal,0.11 ABS 630 nm/μg tissue
CC1(C)O[C@@H]2C[C@H]3[C@@H]4CCC5=CC(=O)C=C[C@]5(C)[C@@]4(F)[C@@H](O)C[C@]3(C)[C@]2(C(=O)CO)O1 [kenalog],injection site finding,[2]; intralesional injection 10 mg/ml into mouse ear,induced a hematoma at the site of injection
same,inflammation induced by TPA (ear thickness),"[2]; intralesional injection into the ear once daily, vs TPA+control",not a substantial difference in ear thickness
same,ear weight,"[2]; intralesional injection once daily, compared with TPA+control",no difference in ear weight
NCCc1c[nH]cn1 [histamine],OD 630 absorbance of extracted Evans Blue dye from tissue samples,[3],0.495 OD units
